Measurements taken from patent US9534221B2, “Targeting the steroidogenic pathway for treating and/or preventing allergic diseases” (National Jewish Health, priority 2013, dated 2017).

Tested on: Balb/c mice
Assay: Peanut-induced intestinal allergy model (PE sensitized and challenged mice)
Assay type: in vivo, mouse
Procedure: The experimental protocol for sensitization and challenge to peanut was previously described (Wang, M., et al. J. Allergy Clin. Immunol. 126, 306-316 (2010).
AMG was dissolved in 1 M hydrogen chloride and diluted with saline for in vivo studies or diluted with RPMI medium for in vitro study. The final concentration of 1 M hydrogen chloride was less than 1% and 0.05% for in vivo and in vitro, respectively. PE sensitized and challenged mice received different doses (5, 10, 20 mg/kg) of the Cyp11a1 enzyme inhibitor (PE/PE/AMG) by means of gavage using a 22-gauge feeding needle (Fisher Scientific) twice a day during the peanut challenge phase. Controls included PE sensitized and challenged but vehicle (saline) treated (PE/PE/vehicle), or sham sensitized but PE challenged and vehicle-treated (PBS/PE/vehicle) mice.
Anaphylactic symptoms were evaluated 30 minutes after the oral challenge, as previously reported (Li, X. M., et al. J. Allergy Clin. Immunol. 106:150-158 (2000)). Briefly, 0: no symptoms; 1: scratching and rubbing around the nose and head; 2: puffiness around the eyes and mouth, diarrhea, pilar erecti, reduced activity, and/or decreased activity with increased respiratory rate; 3: wheezing, labored respiration, and cyanosis around the mouth and the tail; 4: no activity after prodding or tremor and convulsion; and 5: death. Scoring of symptoms was performed in a blinded manner by an independent observer.
The jejunum was processed and stained with periodic acid-Schiff (PAS) and chloroacetate esterase for detection of mucosal mucus-containing cells and mast cells respectively, as previously described (Wang, M., et al. J. Allergy Clin. Immunol. 126, 306-316 (2010); Tomkinson, A., et al. Am. J. Respir. Crit. Care Med. 163, 721-730 (2001)). Numbers of mucosal cells expressing Cyp11a1 were identified by immunohistochemical (IHC) staining using anti-human Cyp11a1 antibody (Abcam, Cambridge, Mass.).
Serum peanut-specific IgE, IgG1, and IgG2a levels were measured by ELISA, as described previously (Payne, A. H. Biol. Reprod. 42, 399-404 (1990)).
Levels of histamine in plasma were measured using an enzyme immunoassay histamine kit (Beckman Coulter, Fullerton, Calif.), as described by the manufacturer. The concentration of histamine was calculated from a standard curve provided by the manufacturer.
RNA was extracted from jejunal tissue homogenates or from CD4 T cells cultured in vitro using Trizol (Invitrogen). cDNA was generated using the iScript cDNA synthesis kit (Bio-Rad Laboratories, Hercules, Calif.). Quantitative real-time PCR was performed on the ABI Prism 7300 sequence detection system (Applied Biosystems, Foster City, Calif.). All primers and probes used were purchased as Tagman Gene Expression Assays from Applied Biosystems. Fold change was calculated using the Delta Delta cycle threshold (ΔΔCT) method.

CCC1(c2ccc(N)cc2)CCC(=O)NC1=O (centres unmarked) [AMG, aminoglutethimide]
Clinical symptoms (5 mg/kg): no observed inhibitory effects | Diarrhea occurrence (5 mg/kg): no observed inhibitory effects | Diarrhea (10 mg/kg): partially inhibited | Symptom scores (10 mg/kg): partially inhibited | Numbers of mast cells in the mucosa of the small intestine (20 mg/kg): markedly reduced | Numbers of mucus-producing goblet cells in the mucosa of the small intestine (20 mg/kg): markedly reduced | Clinical symptom scores (20 mg/kg, 30 minutes after oral challenge): significantly diminished | Development of diarrhea (20 mg/kg, gavage twice a day during challenge phase): fully prevented | Cyp11a1 mRNA in the small intestine (AMG 20 mg/kg): did not affect | GATA3 mRNA expression in the small intestine (AMG 20 mg/kg): not affected | IL4 mRNA expression in the small intestine (AMG 20 mg/kg): reduced to baseline levels | IL13 mRNA expression in the small intestine (AMG 20 mg/kg): reduced to baseline levels | IL17A mRNA expression in the small intestine (AMG 20 mg/kg): reduced to baseline levels | Numbers of Cyp11a1-positive cells in the small intestine (AMG 20 mg/kg): did not affect | RORγt mRNA expression in the small intestine (AMG 20 mg/kg): not affected | T-bet mRNA expression in the small intestine (AMG 20 mg/kg): not affected | Plasma histamine levels (AMG 20 mg/kg, within 30 minutes of the last challenge): significantly lower | Serum peanut-specific IgE (AMG given after sensitization): unaffected | Serum peanut-specific IgG1 (AMG given after sensitization): unaffected | Serum peanut-specific IgG2a (AMG given after sensitization): unaffected
